This note sets out measurements from patent US8202879B2, “Quinazoline derivatives having tyrosine kinase inhibitory activity” (Shionogi & Co., Ltd., priority 2005, dated 2012).

The target in one test is T1, EGFR (Homo sapiens, UniProt P00533).
T1 construct: purchased Carna Biosciences, Inc; host or cells: insect cell expression system
Put plainly: Enzyme inhibitory activity on EGFR (time resolution fluorescence, biotinylated poly-Glu-Tyr substrate). As to conditions: EGFR purified from insect cell expression system; ATP solution 125 μM; room temperature, 60 minutes. The format is biochemical. How it is done: (§1) Enzyme Inhibitory Activity of Test Compound on EGFR and HER2
(§2) EGFR and HER2 purified from an insect cell expression system, and a biotinylated substrate (synthetic peptide of glutamic acid:tyrosine=4:1) were added to a 384-well plate with ATP added thereto, and an enzyme reaction was performed at room temperature. After completion of the enzyme reaction, an anti-phosphorylated tyrosine antibody labeled with europium and streptavidin labeled with alphycocyanine were added, and a phosphorylated tyrosine residue was quantified by a time resolution fluorescence method.
(§3) A test compound was adjusted to 10 mM using DMSO.
(§4) Further, using 10% DMSO solution, a 1 mM solution was prepared, and this was regarded as a maximum concentration point.
(§5) As a dilution series, a 4-fold dilution series was prepared to a 10 stage.
(§6) As a buffer, TBS containing 10 mM MgCl2, 5 mM MnCl2, 0.2 mM Na3VO4, and 0.1% BSA was used.
(§7) As EGFR and HER2 enzymes, those purified from an insect cell expression system were purchased from Carna Biosciences, Inc.
An EGFR enzyme solution was adjusted to 250 ng/ml using a buffer.
(§8) As a substrate, biotinylated poly-Glu-Tyr (4:1, manufactured by CISbio) was used. A concentration was adjusted to 3.125 μg/ml using the above buffer.
An ATP concentration on study of the EGFR enzyme was adjusted to 125 μM using the buffer.
(§9) For preparing a detection reagent, TBS containing 30 mM EDTA, 0.8M KF and 0.1% BSA was used.
(§10) An anti-phosphorylated tyrosine antibody labeled with europium, PT-66K (CISbio) was adjusted to 195 ng/ml, and streptavidin labeled with alphycocyanine, SA-XL (CISbio) was adjusted to 5 μg/ml.
(§11) As an assay plate, a 384-well plate was used. Per one well, 1.1 μl of a test compound, 4 μl of a substrate solution, and 4 μl of an enzyme solution were added, and 2 μl of an ATP solution was added to initiate an enzyme reaction. The enzyme reaction was performed at room temperature for 60 minutes, and 10 μl of a detection reagent was added to complete the reaction. One hour after completion of the reaction, time resolution fluorescent measurement was performed.

The next test deals with BT-474. Kind of test: In vitro cell proliferation inhibition, WST assay. The format is cell-based, human. As to conditions: BT-474 cells, cultured for 3 days, read-out: BT-474 (nM) proliferation inhibitory activity (IC50 value). The method, then:
Test of In Vitro Cell Proliferation Inhibition of Test Compound
As a human-derived cancer cell strain, BT-474 was used. Cells were all cultured in a 37° C., 5% CO2 incubator in a medium in which 10% bovine fetal serum (ICN) and 50 units ml penicillin/60 μg/ml streptomycin solution (GIBCO) were added to Dulbecco's Modified Essential Medium (DMEM, Nacalai Tesque, Inc).

A further test addresses T2, HER2 (Homo sapiens, UniProt P04626).
T2 construct: purchased Carna Biosciences, Inc; host or cells: insect cell expression system
Kind of test: Enzyme inhibitory activity on HER2 (time resolution fluorescence, biotinylated poly-Glu-Tyr substrate). The format is biochemical. As to conditions: HER2 purified from insect cell expression system; ATP solution 290 μM; room temperature, 60 minutes. The method, then: as §1, §2, §3, §4, §5, §6, §7
HER2 kinase was adjusted to 1000 ng/ml using a buffer.
as §8
An ATP concentration on study of the HER2 enzyme was adjusted to 290 μM.
as §9, §10, §11

Where two headings read alike, the source gives them in different places.

T1 sequence (P00533 25-1210): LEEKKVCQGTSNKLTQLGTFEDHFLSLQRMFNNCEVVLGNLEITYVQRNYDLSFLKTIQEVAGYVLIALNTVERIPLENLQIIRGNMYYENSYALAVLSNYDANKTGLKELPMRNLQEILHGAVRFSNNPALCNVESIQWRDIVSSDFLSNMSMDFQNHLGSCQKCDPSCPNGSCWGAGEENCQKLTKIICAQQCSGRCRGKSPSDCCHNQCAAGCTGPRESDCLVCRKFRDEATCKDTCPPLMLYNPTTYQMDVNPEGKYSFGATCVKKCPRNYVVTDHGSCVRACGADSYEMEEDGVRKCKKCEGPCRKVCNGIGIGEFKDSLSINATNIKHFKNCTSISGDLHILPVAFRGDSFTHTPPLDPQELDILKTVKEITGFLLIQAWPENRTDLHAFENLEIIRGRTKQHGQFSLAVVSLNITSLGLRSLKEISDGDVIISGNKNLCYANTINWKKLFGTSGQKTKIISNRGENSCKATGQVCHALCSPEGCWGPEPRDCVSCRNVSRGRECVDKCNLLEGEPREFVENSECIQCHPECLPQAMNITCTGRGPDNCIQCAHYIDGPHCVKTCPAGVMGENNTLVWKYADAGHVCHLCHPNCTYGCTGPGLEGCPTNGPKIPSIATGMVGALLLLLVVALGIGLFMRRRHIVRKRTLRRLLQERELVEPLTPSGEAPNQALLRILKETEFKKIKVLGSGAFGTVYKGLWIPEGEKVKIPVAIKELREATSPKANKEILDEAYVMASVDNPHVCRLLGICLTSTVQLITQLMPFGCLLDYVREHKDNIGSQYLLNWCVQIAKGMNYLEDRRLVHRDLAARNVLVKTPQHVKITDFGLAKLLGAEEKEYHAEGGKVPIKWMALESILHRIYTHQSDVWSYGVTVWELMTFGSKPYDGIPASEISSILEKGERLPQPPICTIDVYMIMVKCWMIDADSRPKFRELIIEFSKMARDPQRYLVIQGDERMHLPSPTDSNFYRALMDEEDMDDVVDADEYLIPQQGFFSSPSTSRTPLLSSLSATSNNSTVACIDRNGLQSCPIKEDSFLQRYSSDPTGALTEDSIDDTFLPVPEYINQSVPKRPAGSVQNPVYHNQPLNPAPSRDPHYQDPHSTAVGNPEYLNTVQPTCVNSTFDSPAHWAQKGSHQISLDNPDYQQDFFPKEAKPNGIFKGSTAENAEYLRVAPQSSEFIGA
T2 sequence (P04626 23-1255): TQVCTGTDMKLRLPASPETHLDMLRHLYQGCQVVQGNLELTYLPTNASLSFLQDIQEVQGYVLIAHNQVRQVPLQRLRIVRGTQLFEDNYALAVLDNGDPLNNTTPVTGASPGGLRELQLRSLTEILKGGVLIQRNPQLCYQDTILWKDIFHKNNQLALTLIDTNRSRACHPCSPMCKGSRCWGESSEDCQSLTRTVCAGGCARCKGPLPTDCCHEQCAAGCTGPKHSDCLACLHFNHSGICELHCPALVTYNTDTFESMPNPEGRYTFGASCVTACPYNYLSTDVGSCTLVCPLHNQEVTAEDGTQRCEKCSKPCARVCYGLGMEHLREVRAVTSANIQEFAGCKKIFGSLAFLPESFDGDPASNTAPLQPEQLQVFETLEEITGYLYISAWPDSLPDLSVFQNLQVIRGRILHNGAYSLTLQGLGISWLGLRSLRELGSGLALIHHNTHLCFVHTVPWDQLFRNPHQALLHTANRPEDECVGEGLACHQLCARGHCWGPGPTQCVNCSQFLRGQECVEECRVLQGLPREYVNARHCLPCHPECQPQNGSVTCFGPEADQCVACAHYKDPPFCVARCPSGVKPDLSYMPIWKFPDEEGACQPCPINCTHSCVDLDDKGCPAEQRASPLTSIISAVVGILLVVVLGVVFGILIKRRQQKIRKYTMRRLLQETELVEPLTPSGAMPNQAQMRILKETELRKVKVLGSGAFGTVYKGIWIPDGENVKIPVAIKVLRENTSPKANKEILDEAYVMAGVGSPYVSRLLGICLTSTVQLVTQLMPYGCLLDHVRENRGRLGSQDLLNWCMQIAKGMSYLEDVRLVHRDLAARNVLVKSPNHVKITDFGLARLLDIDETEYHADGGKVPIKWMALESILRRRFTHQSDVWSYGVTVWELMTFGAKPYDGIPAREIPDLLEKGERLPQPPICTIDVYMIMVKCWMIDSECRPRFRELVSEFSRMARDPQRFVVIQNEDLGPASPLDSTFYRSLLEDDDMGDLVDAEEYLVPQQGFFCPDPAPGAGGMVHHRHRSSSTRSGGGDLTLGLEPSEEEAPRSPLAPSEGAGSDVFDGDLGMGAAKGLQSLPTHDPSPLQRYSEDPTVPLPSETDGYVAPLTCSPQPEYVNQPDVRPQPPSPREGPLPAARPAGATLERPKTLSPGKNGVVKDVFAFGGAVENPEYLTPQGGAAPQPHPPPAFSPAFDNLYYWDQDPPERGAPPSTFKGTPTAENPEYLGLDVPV

`CC#C/C(=N\OC[C@@H](COC)NC)c1ccc2ncnc(Nc3ccc(OCc4cccc(F)c4)c(Cl)c3)c2c1` [VIII-56]: the IC50 at EGFR stood at 7.9 nM; in the test on BT-474, 14 nM; on HER2 it was 13.8 nM.

Take `CC#C/C(=N\OCCNCC(F)(F)F)c1ccc2ncnc(Nc3ccc(OCc4cccc(F)c4)c(Cl)c3)c2c1` [VIII-57]: the IC50 at EGFR worked out at 301 nM; with BT-474 it was 15 nM; against HER2 it was 303 nM.

Consider `CC#CC(=NOCCNC(=NC#N)NC)c1ccc2ncnc(Nc3ccc(OCc4cccc(F)c4)c(Cl)c3)c2c1` [VIII-58], for which the IC50 on EGFR was determined as 207 nM; in the test with BT-474 (Homo sapiens, BT-474, 72 h), 37 nM; against HER2 it was 236 nM.

As to `CC#C/C(=N\OCCNC[C@@H]1COC(=O)N1)c1ccc2ncnc(Nc3ccc(OCc4cccc(F)c4)c(Cl)c3)c2c1` [VIII-59], the IC50 stood at 115 nM at EGFR, 11 nM in the test with BT-474 and 278 nM on HER2.

Consider `CC#C/C(=N\OCCNC1CCN(S(C)(=O)=O)CC1)c1ccc2ncnc(Nc3ccc(OCc4cccc(F)c4)c(Cl)c3)c2c1` [VIII-60], for which the IC50 at EGFR came out at 54 nM; with BT-474 it was 14 nM; against HER2, 30 nM.

Consider `CC#C/C(=N\OCCNC1CCN(C(C)=O)CC1)c1ccc2ncnc(Nc3ccc(OCc4cccc(F)c4)c(Cl)c3)c2c1` [VIII-61], for which the IC50 came out at 30 nM at EGFR, 11 nM in the test with BT-474 and 24 nM on HER2.

`CC#CC(=NOCCNCC(C)CO)c1ccc2ncnc(Nc3ccc(OCc4cccc(F)c4)c(Cl)c3)c2c1` (stereo not drawn) [VIII-62]: the IC50 on EGFR stood at 22 nM; in the test with BT-474, 12 nM; on HER2, 22 nM.

In the case of `CC#C/C(=N\OCCNC[C@H](C)CO)c1ccc2ncnc(Nc3ccc(OCc4cccc(F)c4)c(Cl)c3)c2c1` [VIII-63], the IC50 against EGFR was 9.6 nM; in the test on BT-474 (Homo sapiens, BT-474, 72 h), 13 nM; at HER2 it was 9.2 nM.

Take `CC#C/C(=N\OCCN(CC)CCOC)c1ccc2ncnc(Nc3ccc(OCc4cccc(F)c4)c(Cl)c3)c2c1` [VIII-65]: the IC50 was 97 nM against EGFR, 30 nM in the test with BT-474 and 98 nM on HER2.

Consider `CC#C/C(=N\OCCCNC)c1ccc2ncnc(Nc3ccc(OCc4cccc(F)c4)c(Cl)c3)c2c1` [VIII-67], for which the IC50 against EGFR was 16 nM; in the test on BT-474, 32 nM; against HER2, 14 nM.

Regarding `CC#C/C(=N\OC1CNC1)c1ccc2ncnc(Nc3ccc(OCc4cccc(F)c4)c(Cl)c3)c2c1` [VIII-68], the figures for the IC50 at EGFR, in the test with BT-474 and at HER2 were 19 nM, 41 nM and 25 nM, respectively.

In the case of `CC#C/C(=N\OCCN1CCC[C@@H]1CO)c1ccc2ncnc(Nc3ccc(OCc4cccc(F)c4)c(Cl)c3)c2c1` [VIII-69], the IC50 on EGFR turned out to be 43 nM; with BT-474 (Homo sapiens, BT-474, 72 h) it was 16 nM; against HER2, 28 nM.

Regarding `CC#CC(=NOCCN1CCC(NC(C)=O)C1)c1ccc2ncnc(Nc3ccc(OCc4cccc(F)c4)c(Cl)c3)c2c1` (stereo not drawn) [VIII-70], the IC50 was 63 nM against EGFR, 7 nM with BT-474 and 31 nM on HER2.

As for `CC#C/C(=N\OCCN1CC[C@@H](OC(N)=O)C1)c1ccc2ncnc(Nc3ccc(OCc4cccc(F)c4)c(Cl)c3)c2c1` [VIII-71], the IC50 against EGFR was found to be 130 nM; in the test with BT-474 (Homo sapiens, BT-474, 72 h), 17 nM; against HER2, 199 nM.

As for `CC#C/C(=N\OC[C@@H]1CCCN1)c1ccc2ncnc(Nc3ccc(OCc4cccc(F)c4)c(Cl)c3)c2c1` [VIII-72], the IC50 at EGFR was found to be 6.3 nM; in the test with BT-474, 21 nM; against HER2 it was 11 nM.

Take `CC#C/C(=N\OC[C@@H]1CCCN1CC#N)c1ccc2ncnc(Nc3ccc(OCc4cccc(F)c4)c(Cl)c3)c2c1` [VIII-73]: the IC50 on EGFR was 275 nM; with BT-474 it was 12 nM; at HER2 it was 199 nM.

Consider `CC#C/C(=N\OC[C@@H]1CCCN1CCOC)c1ccc2ncnc(Nc3ccc(OCc4cccc(F)c4)c(Cl)c3)c2c1` [VIII-74], for which the IC50 at EGFR worked out at 164 nM; in the test on BT-474 (Homo sapiens, BT-474, 72 h), 28 nM; against HER2 it was 150 nM.

On to `CC#C/C(=N\OC[C@@H]1CCCN1C)c1ccc2ncnc(Nc3ccc(OCc4cccc(F)c4)c(Cl)c3)c2c1` [VIII-75], for which the IC50 at EGFR was found to be 50 nM; in the test on BT-474, 22 nM; on HER2, 34 nM.

`CC#C/C(=N\OC[C@H]1NC(=O)O[C@@H]1C)c1ccc2ncnc(Nc3ccc(OCc4cccc(F)c4)c(Cl)c3)c2c1` [VIII-76]: the IC50 turned out to be 162 nM against EGFR; 12 nM with BT-474 (Homo sapiens, BT-474, 72 h); 216 nM at HER2.

As for `CC#CC(=NOCC1NC(=O)OC1C)c1ccc2ncnc(Nc3ccc(OCc4cccc(F)c4)c(Cl)c3)c2c1` (stereo not drawn) [VIII-77], the values for the IC50 on EGFR, in the test with BT-474 and at HER2 were 217 nM, 11 nM and 246 nM, respectively.

As to `CC#CC(=NOCC1CCC(=O)N1)c1ccc2ncnc(Nc3ccc(OCc4cccc(F)c4)c(Cl)c3)c2c1` (stereo not drawn) [VIII-78], the IC50 came out at 111 nM against EGFR, 35 nM in the test with BT-474 and 410 nM against HER2.

Take `CC#CC(=NOC1CNC(CO)C1)c1ccc2ncnc(Nc3ccc(OCc4cccc(F)c4)c(Cl)c3)c2c1` (stereo not drawn) [VIII-80]: the values for the IC50 against EGFR, in the test with BT-474 and on HER2 were 23 nM, 35 nM and 29 nM, respectively.

On to `CC#C/C(=N\OC[C@@H]1C[C@@H](O)CN1)c1ccc2ncnc(Nc3ccc(OCc4cccc(F)c4)c(Cl)c3)c2c1` [VIII-81], for which the IC50 was 9.8 nM against EGFR; 8 nM in the test on BT-474 (Homo sapiens, BT-474, 72 h); 17.7 nM at HER2.

Regarding `CC#C/C(=N\OC[C@@H]1C[C@H](O)CN1)c1ccc2ncnc(Nc3ccc(OCc4cccc(F)c4)c(Cl)c3)c2c1` [VIII-82], the figures for the IC50 at EGFR, in the test on BT-474 and at HER2 were 7.6 nM, 16 nM and 7.5 nM, respectively.

For the compound `CC#C/C(=N\OC[C@@H]1CCC(=O)N1)c1ccc2ncnc(Nc3ccc(OCc4cccc(F)c4)c(Cl)c3)c2c1` [VIII-83], the IC50 at EGFR turned out to be 164 nM; in the test with BT-474 it was 13 nM; against HER2, 121 nM.

As to `CC#C/C(=N\OC[C@@H]1C[C@@H](NC(C)=O)CN1)c1ccc2ncnc(Nc3ccc(OCc4cccc(F)c4)c(Cl)c3)c2c1` [VIII-84], the figures for the IC50 on EGFR, in the test with BT-474 and against HER2 were 44 nM, 28 nM and 47 nM, respectively.

Consider `CC#C/C(=N\OC[C@H]1CCCN1)c1ccc2ncnc(Nc3ccc(OCc4cccc(F)c4)c(Cl)c3)c2c1` [VIII-85], for which the IC50 on EGFR was found to be 32 nM; in the test with BT-474, 11 nM; on HER2 it was 33 nM.

`CC#C/C(=N\OC[C@H]1CCCN1CC#N)c1ccc2ncnc(Nc3ccc(OCc4cccc(F)c4)c(Cl)c3)c2c1` [VIII-86]: the IC50 against EGFR turned out to be 244 nM; in the test on BT-474 (Homo sapiens, BT-474, 72 h), 13 nM; on HER2, 304 nM.

Consider `CC#C/C(=N\OC[C@H]1CCCN1CC(=O)OC)c1ccc2ncnc(Nc3ccc(OCc4cccc(F)c4)c(Cl)c3)c2c1` [VIII-87], for which the IC50 was 642 nM on EGFR, 6 nM with BT-474 and 476 nM against HER2.

In the case of `CC#C/C(=N\OC[C@H]1CCCN1CC(=O)O)c1ccc2ncnc(Nc3ccc(OCc4cccc(F)c4)c(Cl)c3)c2c1` [VIII-88], the IC50 at EGFR was found to be 47 nM; with BT-474, 12 nM; on HER2 it was 56 nM.

As for `CC#C/C(=N\OC[C@@H]1CCCN1CC(=O)O)c1ccc2ncnc(Nc3ccc(OCc4cccc(F)c4)c(Cl)c3)c2c1` [VIII-89], the IC50 was 27 nM on EGFR; 25 nM in the test with BT-474 (Homo sapiens, BT-474, 72 h); 24 nM at HER2.
